Experimental data from PMC3733081 (Journal of chemical information and modeling, 2013).
Where two headings read alike, the source gives them in different places.

Assays:
n-hexadecane/water = settings: for P (n-hexadecane/water partition coefficient): shake-flask, P=l1/l2, ± error
n-hexadecane/1-octanol = settings: for logP C16/O: calculated as logPC16/W-logPO/W
[1] = value without superscript b; ref ClogP database; cited from earlier work
[2] = value without superscript a: measured and listed in Table S1; cited from earlier work
[3] = 25 °C, shaking at 25 rpm, fit of eqs 1 and 2

Structure (SMILES) | P (n-hexadecane/water partition coefficient) (n-hexadecane/water; 25 °C) | l1 (rate parameter of transport from water to C16) (n-hexadecane/water; [3]) | l2 (rate parameter of transport from C16 to water) (n-hexadecane/water; [3]) | logP C16/O (n-hexadecane/1-octanol) | further results
COc1ccccc1OC [1,2-dimethoxybenzene] | (2.723±1.352) ×10^1 | 1.171 ± 0.535 cm/h | (4.301±0.840)×10^−2 cm/h | – | –
C(=CC=Cc1ccccc1)C=Cc1ccccc1 [1,6-diphenyl-1,3,5-hexatriene] | – | – | – | 0.188 | –
FC1(F)CCC1(F)Cl (stereo not shown) [1-chloro-1,2,2-trifluorocyclobutane] | – | – | – | 1.436 | –
CCCCCCCO [1-heptanol] | – | – | – | −1.655 | –
Cc1ccc(C=CC=CC=Cc2ccccc2)cc1 [1-methyl-4-(6-phenyl-1,3,5-hexatrien-1-yl)-benzene] | – | – | – | 0.193 | –
CCCCCCCCO [1-octanol] | – | – | – | −1.310 | –
CCCCCO [1-pentanol] | – | – | – | −1.745 | –
CCC(O)c1ccccc1 (stereo not shown) [1-phenyl-1-propanol] | 3.153±0.630 | (3.864±0.154)×10^−1 cm/h | (1.226±0.240)×10^−1 cm/h | – | –
C1=Cc2ccccc2C1 [1H-indene] | – | – | – | −0.078 | logP O/W [1]: 2.920
O=C(O)CCCc1c[nH]c2ccccc12 [1H-indole-3-butanoic acid] | – | – | – | −3.531 | –
C=CCc1ccccc1O [2-allylphenol] | – | (2.286±0.857)×10^−1 cm/h | (3.211±0.685)×10^−2 cm/h | – | –
NC(=O)Cc1ccccc1 [2-phenylacetamide] | – | (1.624±0.359)×10^−2 cm/h | (2.771±0.857)×10^−1 cm/h | – | –
Oc1ccccc1-c1ccccc1 [2-phenylphenol] | (3.536±1.329)×10^1 | (3.699±0.935)×10^−1 cm/h | (1.046±0.291)×10^−2 cm/h | – | –
Nc1cccc(Br)c1 [3-bromoaniline] | (1.107±0.106)×10^1 | (6.304±0.471)×10^−1 cm/h | (5.693±0.339)×10^−2 cm/h | – | –
Cc1c[nH]c2ccccc12 [3-methylindole] | – | – | – | −1.360 | logP C16/W [2]: 0.810
O=C(O)CCc1ccc(C=CC=CC=Cc2ccccc2)cc1 [4-(6-phenyl-1,3,5-hexatrien-1-yl)-benzenepropanoic acid] | – | – | – | −2.702 | –
O=C(c1ccccc1)c1ccc(Br)cc1 [4-bromobenzophenone] | (2.891±0.684)×10^2 | (1.054±0.026)×10^1 cm/h | (3.646±0.858)×10^−2 cm/h | – | –
Cc1ccc(Cl)cc1[N+](=O)[O-] [4-chloro-2-nitrotoluene] | (8.660±3.938)×10^2 | (2.168±0.605)×10^2 cm/h | (2.504±0.899)×10^−1 cm/h | – | –
Cc1cc(O)ccc1Cl [4-chloro-3-methylphenol] | 1.651±0.701 | (1.491±0.611)×10^−1 cm/h | (9.029±1.001)×10^−2 cm/h | – | –
O=C(c1ccccc1)c1ccc(Cl)cc1 [4-chlorobenzophenone] | (7.315±2.674)×10^2 | (1.102±0.216)×10^2 cm/h | (1.507±0.465)×10^−1 cm/h | – | –
Nc1ccc([N+](=O)[O-])cc1 [4-nitroaniline] | (1.890±0.656)×10^−1 | (1.192±0.406)×10^−1 cm/h | (6.295±0.407)×10^−1 cm/h | – | –
CC(C)(C)CC(C)(C)c1ccc(O)cc1 [4-tert-octylphenol] | – | – | – | −1.665 | –
O=C(O)Cc1c2ccccc2cc2ccccc12 [9-anthracene-acetic acid] | – | – | – | −2.570 | –
NCCc1c2ccccc2cc2ccccc12 [9-anthracene-ethanamine] | – | – | – | −1.549 | –
OCc1c2ccccc2cc2ccccc12 [9-anthracenemethanol] | (2.211±0.554)×10^2 | 1.565 ± 0.236 cm/h | (7.080±1.416)×10^−3 cm/h | −0.700 | logP O/W [1]: 3.040
Cc1c2ccccc2cc2ccccc12 [9-methylanthracene] | – | – | – | −0.015 | logP O/W [1]: 5.070

Structure (SMILES) | P (n-hexadecane/water partition coefficient) (n-hexadecane/water; 25 °C) | l1 (rate parameter of transport from water to C16) (n-hexadecane/water; [3]) | l2 (rate parameter of transport from C16 to water) (n-hexadecane/water; [3]) | logP C16/O (n-hexadecane/1-octanol) | further results
c1ccc2c(c1)[nH]c1ccccc12 [9H-carbazole] | – | – | – | −0.851 | –
O=C(O)CCCCCCCCCCn1c2ccccc2c2ccccc21 [11-(9-carbazole)-undecanoic acid] | – | – | – | −1.418 | –
CNC(=O)c1ccccc1 [N-methylbenzamide] | (6.450±1.180)×10^−1 | (4.982±0.860)×10^−1 cm/h | (7.724±0.467)×10^−1 cm/h | – | –
Cn1c2ccccc2c2ccccc21 [N-methylcarbazole] | – | – | – | 0.799 | logP O/W [1]: 3.990
Cn1ccc2ccccc21 [N-methylindole] | – | – | – | 0.969 | –
CC(=O)Nc1ccccc1 [acetanilide] | (2.580±0.857)×10^−1 | (1.315±0.434)×10^−1 cm/h | (5.104±0.179)×10^−1 cm/h | – | –
Nc1ccccc1 [aniline] | (7.860±1.639)×10^−1 | (1.502±0.286)×10^−1 cm/h | (1.912±0.162)×10^−1 cm/h | – | –
CCOC(=O)c1ccc(N)cc1 [benzocaine, reference compound] | 1.560±0.666 | (1.163±0.488)×10^−1 cm/h | (7.455±0.577)×10^−2 cm/h | – | –
OCc1ccccc1 [benzylalcohol] | – | – | – | −1.530 | logP C16/W [2]: −0.430
CC(C)(c1ccc(O)cc1)c1ccc(O)cc1 [bisphenol A] | – | – | – | −4.222 | logP C16/W [2]: −0.902
Cn1c(=O)c2c(ncn2C)n(C)c1=O [caffeine, reference compound] | – | (5.485±0.851)×10^−2 cm/h | (2.309±0.430)×10^−1 cm/h | – | –
O=C=O [carbon dioxide] | – | – | – | – | affinity for n-hexadecane versus 1-octanol (logPC16/W vs logPO/W, Figure 1) (n-hexadecane/1-octanol; small molecules plotted as crosses in Figure 1): not observed
CN[C@@H](C)[C@H](O)c1ccccc1 [ephedrine, reference compound] | – | – | – | −1.770 | logP C16/W [2]: −0.840
CCc1ccccc1 [ethylbenzene] | – | – | – | 0.050 | –
CCOC(=O)c1cccnc1 [ethylnicotinate] | 3.583±0.983 | (5.074±1.031)×10^−1 cm/h | (1.416±0.261)×10^−1 cm/h | – | –
O=CNc1ccccc1 [formanilide] | 2.900±0.955)×10^−1 | (1.532±0.501)×10^−1 cm/h | (5.283±0.213)×10^−1 cm/h | – | –
FC(F)(F)C(Cl)Br (stereo not shown) [halothane, reference compound] | – | – | – | −0.200 | logP C16/W [2]: 2.100
c1ccc2[nH]ccc2c1 [indole] | 5.660±0.633 | (6.291±0.522)×10^−1 cm/h | (1.111±0.083)×10^−1 cm/h | −0.920 | –
FC(F)OC(Cl)C(F)(F)F (stereo not shown) [isofluorane, reference compound] | – | – | – | −0.410 | –
CCCCCc1cc(OC)c2c(c1)OC(C)(C)C1CC=C(C)CC21 (stereo not shown) [methoxy-Δ8-tetrahydrocannabinol] | – | – | – | 0.027 | logP O/W [1]: 8.060
CCCCCCCCCC [n-decane] | – | – | – | 1.030 | logP C16/W [2]: 7.010
O=[N+]([O-])c1ccccc1 [nitrobenzene] | – | – | – | – | l1 (rate parameter of transport from water to C16) (n-hexadecane/water): 1.162 ± 0.218 cm/h; l2 (rate parameter of transport from C16 to water) (n-hexadecane/water): (3.950±0.694)×10^−2 cm/h
c1ccncc1 [pyridine] | – | – | – | – | l1 (rate parameter of transport from water to C16) (n-hexadecane/water): (9.512±0.343)×10^−2 cm/h; l2 (rate parameter of transport from C16 to water) (n-hexadecane/water): (2.672±0.669)×10^−1 cm/h
c1ccc2ncccc2c1 [quinoline] | – | (3.766±0.198)×10^−1 cm/h | (3.566±1.200)×10^−2 cm/h | – | –
CC(C)c1c(O)ccc2c1CC[C@H]1C(C)(C)CCC[C@]21C [totarol] | – | – | – | −0.924 | –
CCCCCc1cc(O)c2c(c1)OC(C)(C)[C@@H]1CC=C(C)C[C@@H]21 [Δ8-tetrahydrocannabinol] | – | – | – | −2.139 | logP O/W [1]: 7.410
